The values that follow come from ChEMBL document CHEMBL1128612, “Synthesis and biological activity of enantiomers of a conformationally restricted muscarone analog” (Bioorg Med Chem Lett, 1995).

Assay [1] has as its target Muscarinic acetylcholine receptor M3 (Cavia porcellus) (UniProt Q8VH26).
Description: Compound was evaluated for dissociation constant (KA), determined from potency against Muscarinic acetylcholine receptor M3 in an isolated tissue assay (guinea pig trachea)
Assay [2] deals with T1, Muscarinic acetylcholine receptor M2 (Rattus norvegicus, UniProt P10980).
T1 sequence (P10980 whole entry): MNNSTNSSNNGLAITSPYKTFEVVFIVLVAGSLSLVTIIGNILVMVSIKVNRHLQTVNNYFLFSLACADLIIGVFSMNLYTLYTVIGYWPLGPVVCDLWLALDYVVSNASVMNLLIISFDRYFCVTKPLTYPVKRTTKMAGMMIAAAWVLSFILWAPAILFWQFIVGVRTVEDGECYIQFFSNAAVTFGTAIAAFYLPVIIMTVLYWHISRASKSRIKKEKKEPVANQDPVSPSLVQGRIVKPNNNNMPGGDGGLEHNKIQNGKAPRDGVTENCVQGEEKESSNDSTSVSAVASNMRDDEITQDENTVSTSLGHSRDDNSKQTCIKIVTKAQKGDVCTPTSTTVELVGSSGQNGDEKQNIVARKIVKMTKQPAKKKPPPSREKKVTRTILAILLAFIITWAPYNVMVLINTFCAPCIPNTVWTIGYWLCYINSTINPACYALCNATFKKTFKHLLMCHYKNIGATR
Description: Compound was evaluated for its affinity towards Muscarinic acetylcholine receptor M2, using [3H]- N-methyl-scopolamine, a radioligand displacement assay in rat heart membranes

Assay [3] addresses T2, Muscarinic acetylcholine receptor M1 (Rattus norvegicus, UniProt P08482).
T2 sequence (P08482 whole entry): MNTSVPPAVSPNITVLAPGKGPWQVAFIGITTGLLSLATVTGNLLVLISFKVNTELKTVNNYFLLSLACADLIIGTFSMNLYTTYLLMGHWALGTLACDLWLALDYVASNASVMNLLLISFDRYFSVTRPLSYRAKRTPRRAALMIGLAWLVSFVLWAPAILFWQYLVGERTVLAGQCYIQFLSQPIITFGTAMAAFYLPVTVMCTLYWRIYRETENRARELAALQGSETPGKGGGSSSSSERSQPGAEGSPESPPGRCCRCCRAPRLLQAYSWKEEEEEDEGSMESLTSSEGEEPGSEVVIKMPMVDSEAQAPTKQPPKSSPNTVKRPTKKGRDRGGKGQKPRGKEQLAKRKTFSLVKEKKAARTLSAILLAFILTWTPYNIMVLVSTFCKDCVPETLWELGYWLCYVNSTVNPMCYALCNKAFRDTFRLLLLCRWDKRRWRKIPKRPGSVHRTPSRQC
Description: Compound was evaluated for its affinity towards Muscarinic acetylcholine receptor M1, using [3H]- pirenzepine, a radioligand displacement assay in rat hippocampal membranes

Muscarinic acetylcholine receptor M3 (Cavia porcellus), sequence (Q8VH26 1-587): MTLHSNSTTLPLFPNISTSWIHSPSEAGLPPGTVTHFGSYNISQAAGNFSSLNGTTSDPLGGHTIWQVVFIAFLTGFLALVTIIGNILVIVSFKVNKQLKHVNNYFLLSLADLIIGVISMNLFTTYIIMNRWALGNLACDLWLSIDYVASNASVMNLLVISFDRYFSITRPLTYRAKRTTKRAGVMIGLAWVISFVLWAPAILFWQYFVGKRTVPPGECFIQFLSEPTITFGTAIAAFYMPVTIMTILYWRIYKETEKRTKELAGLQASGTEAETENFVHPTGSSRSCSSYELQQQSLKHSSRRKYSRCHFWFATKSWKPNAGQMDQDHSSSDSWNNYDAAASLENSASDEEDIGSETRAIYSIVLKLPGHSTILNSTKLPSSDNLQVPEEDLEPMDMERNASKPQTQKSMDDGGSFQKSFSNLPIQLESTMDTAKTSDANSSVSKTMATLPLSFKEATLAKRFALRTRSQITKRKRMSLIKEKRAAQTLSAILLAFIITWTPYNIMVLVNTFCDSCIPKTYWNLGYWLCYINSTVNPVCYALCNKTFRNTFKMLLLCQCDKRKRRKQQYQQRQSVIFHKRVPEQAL

As to `C[C@H]1OC2(CCN(C)CC2)CC1=O`, the KA in assay [1] was determined as 4.5 µM. Besides, the Ki in assay [2] stood at 37 µM; in assay [3], 26 µM.
As to `C[C@@H]1OC2(CCN(C)CC2)CC1=O`, the KA in assay [1] was found to be 0.28 µM. The Ki in assay [2] came out at 2.5 µM; in assay [3], 4.1 µM.
As to `CC1OC2(CCN(C)CC2)CC1=O` (centres undefined), the KA in assay [1] is 0.7 µM. For the same molecule, the Ki was 5.3 µM in assay [2] and 3.8 µM in assay [3].

In general, Ki refers to the equilibrium dissociation constant of an inhibitor or competing ligand from its target. A higher Ki goes with lower affinity.
